Measurements published in patent US20110172296A1, “MODULATION OF TRANSFORMING GROWTH FACTOR-BETA 1 EXPRESSION” (priority 2010, published 2011).
“And” between values parts separate entries of the source, which are not always exact repeats. Equal values may be shown once. In the oligonucleotide strings, read from the 5' end, every base follows the letter of its sugar. An asterisk marks phosphorothioate; unmarked linkages are phosphodiester. Other units and linkages are bracketed, terminal groups are in braces. A string of capitals states the bases alone. e = 2'-O-(2-methoxyethyl) (MOE); [5mC] = 5-methylcytosine; d = 2'-deoxy (DNA)

Assays:
human TGF-beta1 mRNA [1] = assay: Dose-dependent antisense inhibition of human TGF-beta1 in HuVEC cells, Lipofectamine 2000, 0.9375-30 nM (Example 3); type: cell-based; conditions: for percent inhibition of TGF-beta1: Lipofectamine 2000; for IC50: Lipofectamine 2000, Example 3
Protocol: Cells were plated at a density of 5,000 cells per well and transfected using Lipofectamine™ 2000 reagent with 0.9375 nM, 1.875 nM, 3.75 nM, 7.5 nM, 15 nM, and 30 nM concentrations of antisense oligonucleotide for 4 hours, as specified in Table 3. After a recovery period of approximately 16 hours, RNA was isolated from the cells and TGF-beta1 mRNA levels were measured by quantitative real-time PCR. Human TGF-beta1 primer probe set RTS 2980 (forward sequence CTCTCCGACCTGCCACAGA, SEQ ID NO: 160; reverse sequence […], SEQ ID NO: 53; probe sequence CCCTATTCAAGACCACCCACCTTCTGGTX, SEQ ID NO: 161) was used to measure mRNA levels. TGF-beta1 mRNA levels were adjusted according to total RNA content, as measured by RIBOGREEN®. Results are presented as percent inhibition of TGF-beta1, relative to untreated control cells.

human TGF-beta1 mRNA [2] = assay: Antisense inhibition of human TGF-beta1 mRNA in HuVEC cells, single 10 nM dose, Lipofectamine 2000 (Example 2); type: cell-based; conditions: for % inhibition: 10 nM oligonucleotide, HuVEC, relative to untreated control cells; for inhibition of a TGF-beta1 mRNA: threshold lists of Oligo IDs, 10 nM
Procedure, shortened: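 Percent inhibition relative to untreated controls, from qRT-PCR of mRNA corrected for total RNA (RIBOGREEN). Cells were exposed 4 h to 10 nM phosphorothioate 2-13-5 MOE gapmers with Lipofectamine 2000 at 5,000 cells/well. RNA was harvested after roughly 24 h recovery.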

[3] = gapmers targeted to SEQ ID NO: 1
[4] = gapmers targeted to SEQ ID NO: 2

413970 (antisense eG*e[5mC]*d[5mC]*dT*d[5mC]*dA*dG*dG*d[5mC]*dT*dG*d[5mC]*dT*d[5mC]*d[5mC]*eT*e[5mC]*eG*eG*e[5mC]) [compound 413970]
percent inhibition of TGF-beta1 (human TGF-beta1 mRNA [1]; 0.9375 nM): 48% | percent inhibition of TGF-beta1 (human TGF-beta1 mRNA [1]; 1.875 nM): 64% | percent inhibition of TGF-beta1 (human TGF-beta1 mRNA [1]; 3.75 nM): 81% | percent inhibition of TGF-beta1 (human TGF-beta1 mRNA [1]; 7.5 nM): 91% | percent inhibition of TGF-beta1 (human TGF-beta1 mRNA [1]; 15 nM): 94% | percent inhibition of TGF-beta1 (human TGF-beta1 mRNA [1]; 30 nM): 95% | % inhibition (human TGF-beta1 mRNA [2]; [3]): 87% | inhibition of a TGF-beta1 mRNA (human TGF-beta1 mRNA [2]): 60% and 65% and 70% and 75% and 80% and 85%

413979 (antisense eG*eG*d[5mC]*dT*d[5mC]*d[5mC]*d[5mC]*dA*dG*d[5mC]*dG*dG*d[5mC]*dA*dA*e[5mC]*eG*eG*eA*eA) [compound 413979]
percent inhibition of TGF-beta1 (human TGF-beta1 mRNA [1]; 0.9375 nM): 42% | percent inhibition of TGF-beta1 (human TGF-beta1 mRNA [1]; 1.875 nM): 62% | percent inhibition of TGF-beta1 (human TGF-beta1 mRNA [1]; 3.75 nM): 80% | percent inhibition of TGF-beta1 (human TGF-beta1 mRNA [1]; 7.5 nM): 92% | percent inhibition of TGF-beta1 (human TGF-beta1 mRNA [1]; 15 nM): 95% | percent inhibition of TGF-beta1 (human TGF-beta1 mRNA [1]; 30 nM): 94% | % inhibition (human TGF-beta1 mRNA [2]; [3]): 87% | inhibition of a TGF-beta1 mRNA (human TGF-beta1 mRNA [2]): 60% and 65% and 70% and 75% and 80% and 85%

414022 (antisense eG*eG*dG*d[5mC]*dT*d[5mC]*d[5mC]*dG*dG*dT*dT*d[5mC]*dT*dG*d[5mC]*eA*e[5mC]*eT*e[5mC]*eT) [compound 414022]
percent inhibition of TGF-beta1 (human TGF-beta1 mRNA [1]; 0.9375 nM): 31% | percent inhibition of TGF-beta1 (human TGF-beta1 mRNA [1]; 1.875 nM): 50% | percent inhibition of TGF-beta1 (human TGF-beta1 mRNA [1]; 3.75 nM): 76% | percent inhibition of TGF-beta1 (human TGF-beta1 mRNA [1]; 7.5 nM): 85% | percent inhibition of TGF-beta1 (human TGF-beta1 mRNA [1]; 15 nM): 91% | percent inhibition of TGF-beta1 (human TGF-beta1 mRNA [1]; 30 nM): 92% | IC50 (human TGF-beta1 mRNA [1]): 1.67 nM | % inhibition (human TGF-beta1 mRNA [2]; [3]): 84% | inhibition of a TGF-beta1 mRNA (human TGF-beta1 mRNA [2]): 60% and 65% and 70% and 75% and 80%

414037 (antisense eG*eG*dG*dT*dG*dT*d[5mC]*d[5mC]*dT*dT*dA*dA*dA*dT*dA*e[5mC]*eA*eG*e[5mC]*e[5mC]) [compound 414037]
percent inhibition of TGF-beta1 (human TGF-beta1 mRNA [1]; 0.9375 nM): 56% | percent inhibition of TGF-beta1 (human TGF-beta1 mRNA [1]; 1.875 nM): 74% | percent inhibition of TGF-beta1 (human TGF-beta1 mRNA [1]; 3.75 nM): 87% | percent inhibition of TGF-beta1 (human TGF-beta1 mRNA [1]; 7.5 nM): 93% | percent inhibition of TGF-beta1 (human TGF-beta1 mRNA [1]; 15 nM): 93% | percent inhibition of TGF-beta1 (human TGF-beta1 mRNA [1]; 30 nM): 92% | % inhibition (human TGF-beta1 mRNA [2]; [3]): 89% | inhibition of a TGF-beta1 mRNA (human TGF-beta1 mRNA [2]): 60% and 65% and 70% and 75% and 80% and 85%

414058 (antisense eA*eG*dG*dT*d[5mC]*dA*dA*dG*d[5mC]*d[5mC]*dA*dT*dG*dT*dG*eG*e[5mC]*eA*e[5mC]*e[5mC]) [compound 414058]
percent inhibition of TGF-beta1 (human TGF-beta1 mRNA [1]; 0.9375 nM): 46% | percent inhibition of TGF-beta1 (human TGF-beta1 mRNA [1]; 1.875 nM): 65% | percent inhibition of TGF-beta1 (human TGF-beta1 mRNA [1]; 3.75 nM): 78% | percent inhibition of TGF-beta1 (human TGF-beta1 mRNA [1]; 7.5 nM): 88% | percent inhibition of TGF-beta1 (human TGF-beta1 mRNA [1]; 15 nM): 87% | percent inhibition of TGF-beta1 (human TGF-beta1 mRNA [1]; 30 nM): 81% | % inhibition (human TGF-beta1 mRNA [2]; [4]): 81% | inhibition of a TGF-beta1 mRNA (human TGF-beta1 mRNA [2]): 60% and 65% and 70% and 75% and 80%

414102 (antisense eT*eT*dT*dG*dA*dA*d[5mC]*dT*dA*d[5mC]*dA*dT*dG*dG*dG*eT*e[5mC]*e[5mC]*eT*e[5mC]) [compound 414102]
percent inhibition of TGF-beta1 (human TGF-beta1 mRNA [1]; 0.9375 nM): 36% | percent inhibition of TGF-beta1 (human TGF-beta1 mRNA [1]; 1.875 nM): 54% | percent inhibition of TGF-beta1 (human TGF-beta1 mRNA [1]; 3.75 nM): 70% | percent inhibition of TGF-beta1 (human TGF-beta1 mRNA [1]; 7.5 nM): 84% | percent inhibition of TGF-beta1 (human TGF-beta1 mRNA [1]; 15 nM): 87% | percent inhibition of TGF-beta1 (human TGF-beta1 mRNA [1]; 30 nM): 84% | IC50 (human TGF-beta1 mRNA [1]): 1.42 nM | % inhibition (human TGF-beta1 mRNA [2]; [4]): 86% | inhibition of a TGF-beta1 mRNA (human TGF-beta1 mRNA [2]): 60% and 65% and 70% and 75% and 80% and 85%

414109 (antisense eG*eG*d[5mC]*d[5mC]*dA*dA*dT*dT*dT*d[5mC]*d[5mC]*dA*dT*dT*dG*e[5mC]*eA*eT*e[5mC]*eT) [compound 414109]
% inhibition (human TGF-beta1 mRNA [2]; [4]): 80% | inhibition of a TGF-beta1 mRNA (human TGF-beta1 mRNA [2]): 60% and 65% and 70% and 75% and 80%

414110 (antisense eG*eA*dA*d[5mC]*dA*dA*dA*dT*dT*dT*dT*d[5mC]*d[5mC]*dT*dA*eT*eG*eA*eA*eA) [compound 414110]
% inhibition (human TGF-beta1 mRNA [2]; [4]): 14%

414111 (antisense eT*eT*dG*dA*dA*d[5mC]*dA*dA*dG*d[5mC]*d[5mC]*dG*dT*d[5mC]*dT*eA*eG*eG*eT*eG) [compound 414111]
% inhibition (human TGF-beta1 mRNA [2]; [4]): 81% | inhibition of a TGF-beta1 mRNA (human TGF-beta1 mRNA [2]): 60% and 65% and 70% and 75% and 80%

414112 (antisense eG*eG*d[5mC]*dA*dG*d[5mC]*dA*dT*d[5mC]*dA*d[5mC]*d[5mC]*dT*dG*dG*eG*eA*eA*e[5mC]*eT) [compound 414112]
% inhibition (human TGF-beta1 mRNA [2]; [4]): 57%

414113 (antisense eT*e[5mC]*dT*dG*dG*dG*dA*dA*dA*dA*dA*dG*dA*dG*dT*e[5mC]*e[5mC]*eT*eG*eG) [compound 414113]
% inhibition (human TGF-beta1 mRNA [2]; [4]): 79% | inhibition of a TGF-beta1 mRNA (human TGF-beta1 mRNA [2]): 60% and 65% and 70% and 75%

414114 (antisense eT*eT*dT*d[5mC]*d[5mC]*dA*dA*dG*dA*dG*d[5mC]*d[5mC]*dA*d[5mC]*dA*eG*eA*eA*eG*e[5mC]) [compound 414114]
% inhibition (human TGF-beta1 mRNA [2]; [4]): 46%

414115 (antisense eT*eT*dT*dT*d[5mC]*d[5mC]*dA*dT*dA*dA*dT*dA*dA*dA*dG*eG*eA*eA*eT*eT) [compound 414115]
% inhibition (human TGF-beta1 mRNA [2]; [4]): 18%

414116 (antisense e[5mC]*eT*dG*dG*dA*dT*dG*dA*dG*dA*dG*dT*dT*dT*dA*e[5mC]*eG*eG*eG*e[5mC]) [compound 414116]
% inhibition (human TGF-beta1 mRNA [2]; [4]): 83% | inhibition of a TGF-beta1 mRNA (human TGF-beta1 mRNA [2]): 60% and 65% and 70% and 75% and 80%

414117 (antisense eA*eG*dT*dG*d[5mC]*dA*dA*dT*dA*d[5mC]*dG*dG*dT*dA*dT*eT*eG*e[5mC]*eA*eG) [compound 414117]
% inhibition (human TGF-beta1 mRNA [2]; [4]): 81% | inhibition of a TGF-beta1 mRNA (human TGF-beta1 mRNA [2]): 60% and 65% and 70% and 75% and 80%

414118 (antisense eA*eA*dT*dG*d[5mC]*d[5mC]*d[5mC]*dA*dA*dG*dT*d[5mC]*d[5mC]*dT*d[5mC]*eA*e[5mC]*e[5mC]*eG*eT) [compound 414118]
% inhibition (human TGF-beta1 mRNA [2]; [4]): 73% | inhibition of a TGF-beta1 mRNA (human TGF-beta1 mRNA [2]): 60% and 65% and 70%

414119 (antisense eT*eG*dT*dG*d[5mC]*dA*dA*d[5mC]*dA*dA*dA*dT*dG*dT*dT*eT*eA*eT*eT*eG) [compound 414119]
% inhibition (human TGF-beta1 mRNA [2]; [4]): 43%

414120 (antisense e[5mC]*eA*d[5mC]*dA*d[5mC]*d[5mC]*d[5mC]*dT*dG*dG*dA*dA*d[5mC]*dA*dT*eA*e[5mC]*eA*eA*eA) [compound 414120]
% inhibition (human TGF-beta1 mRNA [2]; [4]): 40%

414121 (antisense eG*e[5mC]*dA*dA*dT*dG*d[5mC]*dT*dT*dA*dA*dG*dA*d[5mC]*dA*eA*eG*e[5mC]*e[5mC]*eT) [compound 414121]
% inhibition (human TGF-beta1 mRNA [2]; [4]): 62% | inhibition of a TGF-beta1 mRNA (human TGF-beta1 mRNA [2]): 60%

414122 (antisense eT*e[5mC]*dA*d[5mC]*dT*dA*dA*d[5mC]*dA*d[5mC]*dA*dG*dA*dT*dT*eA*eA*eG*e[5mC]*eA) [compound 414122]
% inhibition (human TGF-beta1 mRNA [2]; [4]): 34%
